# Results as given in patent publication US20040200144A1, “Plant growth regulator and a method of producing the regulator” (Dainichiseika Color & Chemicals Mfg. Co., Ltd., priority 2003, published 2004).
# Assays:
# Format in all cases: in vivo
# [1] = system: carrot young plants; assay: Dwarfing test of carrot young plant; conditions: for Plant Height / Dwarfing Rate: 5 ml per cell on 5th day, measured 27th day; for Dwarfing Rate: vs comparative group
# Protocol: Dwarfing rate (%)=[(the plant height of the comparative group)−(the plant height of an addition group)/the plant height of the comparative group]×100
# (§1) 50 g of sodium tripolyphosphate was dissolved in 400 ml of distilled water at 80° C., 17.5 g of cinnamic acid was added to the sodium tripolyphosphate solution and dissolved by stirring, the resultant solution was diluted with distilled water until the total volume of solution was 500 ml, and thus 3.5% cinnamic acid aqueous solution (pH 6.5) was prepared. The aqueous solution was further diluted with distilled water 70 times or 17.5 times, and 0.05% cinnamic acid aqueous solution and 0.2% cinnamic acid aqueous solution were prepared, respectively.
# Nursery soil for house use was filled into paper joint pots (each with 24 cells: 34×43×50 mm/cell), water was sufficiently given to the soil, and seeds of carrots were sowed. After seeding, the pot was placed in the same greenhouse as described above to sprout. Subsequently, on the 5th day, the cinnamic aqueous acid solutions were added to the nursery soil in the joint pots. One of the joint pots (24 cells) was prepared as a 0.05% cinnamic acid aqueous solution addition group, and 5 ml of the 0.05% cinnamic acid aqueous solution was added to the nursery soil of each cell. Another one of the join pots was prepared as a 0.2% cinnamic acid aqueous solution addition group, and 5 ml of the 0.2% cinnamic acid aqueous solution was added to the nursery soil of each cell. The other one of the joint pots was prepared as a comparative group in which 5 ml of water is added to each cell, instead of the cinnamic acid aqueous solution. Subsequently, the cultivation of carrot young plants in each group was continued under general conditions. On the 27th day, the heights of young plants in each group were measured, the dwarfing rate (%) was calculated, and the dwarfing effect of cinnamic acid aqueous solution on carrot young plants was examined. […]
# [2] = system: Japanese radish young plants; assay: Dwarfing test of Japanese radish young plant; conditions: for Plant Height / Dwarfing Rate: 5 ml per cell on 5th day, measured 27th day; for Dwarfing Rate: vs comparative group
# Protocol: as §1
# (§2) Nursery soil for house use was filled into paper joint pots (each with 24 cells: 34×43×50 mm/cell), water was sufficiently given to the soil, and seeds of carrots were sowed. After seeding, the pot was placed in the same greenhouse as described above to sprout. Subsequently, on the 5th day, the cinnamic aqueous acid solutions were added to the nursery soil in the joint pots. One of the joint pots (24 cells) was prepared as a 0.05% cinnamic acid aqueous solution addition group, and 5 ml of the 0.05% cinnamic acid aqueous solution was added to the nursery soil of each cell. Another one of the join pots was prepared as a 0.2% cinnamic acid aqueous solution addition group, and 5 ml of the 0.2% cinnamic acid aqueous solution was added to the nursery soil of each cell. The other one of the joint pots was prepared as a comparative group in which 5 ml of water is added to each cell, instead of the cinnamic acid aqueous solution. Subsequently, the cultivation of carrot young plants in each group was continued under general conditions. On the 27th day, the heights of young plants in each group were measured, the dwarfing rate (%) was calculated, and the dwarfing effect of cinnamic acid aqueous solution on carrot young plants was examined. […].
# In the same way as in Example 5 except that seeds of Japanese radish were sowed, the dwarfing effect of cinnamic acid aqueous solution on Japanese radish young plants was examined. […]
# [3] = system: lettuce young plants; assay: Dwarfing test of lettuce young plant; conditions: for Plant Height / Dwarfing Rate: 5 ml per cell on 5th day, measured 20th day; for Dwarfing Rate: vs comparative group
# Protocol: as §1, §2
# (§3) In the same way as in Example 5 except that seeds of lettuce were sowed, and that heights of young plants in each group were measured on the 20th day, the dwarfing effect of cinnamic acid aqueous solution on lettuce young plants was examined. […]
# [4] = system: field peas young plants; assay: Dwarfing test of field peas young plant; conditions: for Plant Height / Dwarfing Rate: measured 24th day; for Dwarfing Rate: vs comparative group
# Protocol: 18.4 g of potassium hydroxide was dissolved in 400 ml of distilled water at 20° C., 50 g of cinnamic acid was added to the potassium hydroxide solution and dissolved by stirring, the resultant solution was diluted with distilled water until the total volume of solution was 500 ml, and thus 10% cinnamic acid aqueous solution (pH 8.8) was prepared. The aqueous solution was further diluted with distilled water 100 times or 33.3 times, and 0.1% cinnamic acid aqueous solution and 0.3% cinnamic acid aqueous solution were prepared, respectively.
# as §2
# as §3, with “field peas” for “lettuce”, “sowed, 0.1% and 0.3% cinnamic acid solutions in example 3 were added to the nursery soil in the joint pot,” for “sowed,”, “24th” for “20th”
# [5] = system: cucumber young plants; assay: Dwarfing test of cucumber young plant; conditions: for Plant Height / Dwarfing Rate: 5 ml per cell on 7th day, measured 20th day; for Dwarfing Rate: vs comparative group
# Protocol: After seeding, the pot was placed in the same greenhouse as described above to sprout. Subsequently, on the 5th day, the cinnamic aqueous acid solutions were added to the nursery soil in the joint pots. One of the joint pots (24 cells) was prepared as a 0.05% cinnamic acid aqueous solution addition group, and 5 ml of the 0.05% cinnamic acid aqueous solution was added to the nursery soil of each cell. Another one of the join pots was prepared as a 0.2% cinnamic acid aqueous solution addition group, and 5 ml of the 0.2% cinnamic acid aqueous solution was added to the nursery soil of each cell. […] Subsequently, the cultivation of carrot young plants in each group was continued under general conditions. On the 27th day, the heights of young plants in each group were measured, the dwarfing rate (%) was calculated, and the dwarfing effect of cinnamic acid aqueous solution on carrot young plants was examined. From the results in Table 5, it became evident that the 0.05% and 0.2% cinnamic acid aqueous solutions are effective in dwarfing carrot young plants. In the same way as in Example 5 except that seeds of cauliflower were sowed, the cinnamic acid solutions were added to the nursery soil in the joint pot on the 4th day, and that heights of young plants in each group were measured on the 20th day, the dwarfing effect of cinnamic acid aqueous solution on cauliflower young plants was examined. From the results in Table 12, it became evident that the cinnamic acid aqueous solutions are effective in dwarfing cauliflower young plants. In the same way as in Example 12 except that seeds of tomato were sowed, and that the cinnamic acid solutions were added to the nursery soil of the joint pot on the 7th day, the dwarfing effect of cinnamic acid aqueous solution on tomato young plants was examined. From the results in Table 17, it became evident that the cinnamic acid aqueous solutions are effective in dwarfing tomato young plants. In the same way as in Example 17 except that seeds of cucumber were sowed, the dwarfing effect of cinnamic acid aqueous solution on cucumber young plants was examined. From the results in Table 18, it became evident that the cinnamic acid aqueous solutions are effective in dwarfing cucumber young plants.
# [6] = 0.1% aqueous solution of Example 3, 5 ml per cell on 5th day
# [7] = 0.3% aqueous solution of Example 3, 5 ml per cell on 5th day
smiles,measurement,setting,value
O=C(O)C=Cc1ccccc1 [cinnamic acid],Plant Height,[1]; 0.05% aqueous solution,7.9 cm
same,Dwarfing Rate,[1]; 0.05% aqueous solution,7.1%
same,Plant Height,[1]; 0.2% aqueous solution,6.9 cm
same,Dwarfing Rate,[1]; 0.2% aqueous solution,18.8%
same,dwarfing effect,"[1]; carrot young plants, 0.05% and 0.2% aqueous solutions",effective
same,Plant Height,[2]; 0.05% aqueous solution,15.3 cm
same,Dwarfing Rate,[2]; 0.05% aqueous solution,1.9%
same,Plant Height,[2]; 0.2% aqueous solution,10.9 cm
same,Dwarfing Rate,[2]; 0.2% aqueous solution,30.1%
same,dwarfing effect,"[2]; Japanese radish young plants, 0.05% and 0.2% aqueous solutions",effective
same,Plant Height,[3]; 0.05% aqueous solution,5.7 cm
same,Dwarfing Rate,[3]; 0.05% aqueous solution,6.6%
same,Plant Height,[3]; 0.2% aqueous solution,4.3 cm
same,Dwarfing Rate,[3]; 0.2% aqueous solution,29.5%
same,dwarfing effect,"[3]; lettuce young plants, 0.05% and 0.2% aqueous solutions",effective
same,Plant Height,[4]; [6],24.3 cm
same,Dwarfing Rate,[4]; [6],19.5%
same,Plant Height,[4]; [7],18.1 cm
same,Dwarfing Rate,[4]; [7],40.1%
same,dwarfing effect,"[4]; field peas young plants, 0.1% and 0.3% aqueous solutions",effective
same,Plant Height,[5]; 0.05% aqueous solution,7.8 cm
same,Dwarfing Rate,[5]; 0.05% aqueous solution,21.2%
same,Plant Height,[5]; 0.2% aqueous solution,6.2 cm
same,Dwarfing Rate,[5]; 0.2% aqueous solution,37.4%
same,dwarfing effect,"[5]; cucumber young plants, 0.05% and 0.2% aqueous solutions",effective
